Results: US20090221540A1, “Method of Treating An Acute Vascular Disorder” (PANTARHEI BIOSCIENCE B.V., priority 2006, published 2009)
Read-outs that look alike come from different tables or passages of the source.

Experiments:
[1] = test system: coronary and cerebral arteries; conditions: in vitro; cited from earlier work
[2] = safety and tolerability of single oral doses of estetrol in healthy postmenopausal volunteers; type: in vivo, human
Experimental: (§1) A double-blind, randomized, placebo-controlled, single dose study was performed to determine the safety, tolerability and pharmacokinetics of 1, 10 and 100 mg orally administered estetrol in healthy postmenopausal volunteers (menopause defined as ≧12 months amenorrhea or six months amenorrhea with serum FSH levels ≧40 IU/L and serum E2<73 pmol/L), a Body Mass Index of 18-30 kg/m^2, non-smoking, good physical and mental health as judged by the investigator determined by medical history, physical examination, clinical laboratory, vital signs and ECG recording). In each dose group, six subjects received estetrol treatment and two subjects received placebo.
(§2) Screening took place within two weeks before investigational drug administration. During and after drug administration, subjects were admitted to a Clinical Pharmacology Unit for approximately 60 hours for intensive safety monitoring. Safety and tolerability were documented by monitoring (serious) adverse events, physical examinations including vital signs, and safety laboratory assessments (hematology, biochemistry, urinalysis). Frequent blood sampling (within the range of 15 minutes to 168 hours) was performed to assess estetrol plasma concentration and pharmacokinetic variables. For this, plasma samples were subjected to liquid-liquid extraction (hexane and diethyl ether) and further subjected to HPLC analysis (Perkin Elmer 200) and tandem mass spectrometry using a PE Sciex 4000 tandem mass spectrometer and APCI interface. With each sample batch, a calibration curve with 6 calibrators was recorded. The calibration curve was calculated using linear regression (correlation coefficient >0.98), which permitted quantification of estetrol plasma concentrations.

[3] = single oral dose pharmacokinetics study of estetrol in healthy postmenopausal volunteers; type: in vivo, human; conditions: for Cmax: po
Experimental: as §1
Estetrol and placebo medication was formulated as a solution (propylene glycol/water mixture) and was delivered in separate bottles for each volunteer. Bottles contained 1 mg or 10 mg estetrol per 50 ml for subjects of the groups that received 1 mg or 10 mg estetrol and 100 mg per 200 ml for the group receiving 100 mg estetrol.
as §2

[4] = test system: erectile dysfunction primarily due to vascular causes; assay: clinical trial of on demand oral estetrol versus placebo in erectile dysfunction (SFQ); type: in vivo, human; conditions: 100 mg per dose
Experimental: As a novel method single dose, on demand oral estetrol administration is tested to treat erectile dysfunction and compared to placebo treatment. A clinical trial is performed in 20 subjects, experiencing erectile dysfunction that is primarily due to vascular causes and in whom intracavernous injection of either papaverine or phentolamine has been previously proven successful in restoring erectile function. Ten subjects receive estetrol medication (100 mg per dose) and 10 subjects receive placebo medication in this outclinic study. Subjects with mild, moderate as well as severe symptoms of erectile dysfunction are instructed on the use of investigational drug medication, which is preferentially being taken 15 minutes to 2 hours before sexual activity. At the start of the trial, subjects are asked to fill out a baseline Sexual Functioning Questionnaire (SFQ). The SFQ is used as the primary endpoint, since this is a self-administered questionnaire and designed to measure changes in sexual function (Smith et al., 2002, British J. Psych., 181:49-55). It asks detailed questions about libido, physical arousal (erection), masturbation, orgasm and ejaculation. It is designed such that higher scores indicate greater dysfunction. Typically total normal controls scores are less than 14 and sexually disfunctioning patients show total scores of more than 18 (Smith et al., 2002, British J. Psych., 181:49-55). […] At the end of the study period at 4 weeks, subject's responses to SFQ survey questions are compared to SFQ responses at baseline. For separate SFQ variables, a comparison is made of those subjects who initially show a bad baseline score. The results are then pooled and expressed as the percentage of subjects with improvement.

migraine = assay: double-blind, placebo-controlled, multiple attack clinical study of on demand oral estetrol in migraine; type: in vivo, human
Experimental: A double-blind, placebo-controlled, multiple attack clinical study is conducted with single dose, on demand oral estetrol administration in adult volunteers (20 females and 20 males) each of whom is seeking migraine relief. Participating subjects show at least a 1-year history of migraine as is defined by International Headache Society criteria (IHS; Headache Classification Committee of the International Headache Society, 1988, Cephalalgia 8 (Suppl. 7):19-28) and report regularly occurring migraines with episodes of pain, photophobia and nausea. Each participant receives blinded medication in two differently labeled bottles, filled with tablets. One bottle comprises tablets that contain 100 mg estetrol, whilst the other bottle contains identical placebo tablets. Participants are allowed to choose from which bottle to orally ingest a tablet at the moment the first symptoms of a migraine attack become apparent. Patients are asked to keep daily records stating the number of migraine attacks, severity of attacks, duration of attacks and use of medication (bottle 1 or bottle 2) for the entire study period of 2 months.

[5] = test system: angina pectoris induced by coronary artery disease; assay: clinical trial of on demand oral estetrol versus placebo in angina pectoris; type: in vivo, human; conditions: 100 mg per dose
Experimental: A clinical trial is conducted with single dose, on demand oral estetrol administration of 100 mg in subjects suffering from documented angina pectoris and is compared to placebo treatment. Additionally, patients in this trial are offered to use their standard on demand medication, e.g. nitroglycerin. Hundred patients, males and females, with a diagnosis of angina pectoris induced by coronary artery disease, substantiated by positive dynamic tests of myocardial ischaemia, participate in the clinical trial. Patients are selected according to the following inclusion (I) and exclusion (E) criteria: Patients with clear angina pectoris diagnosis (I), patients having chest pain attacks more than two times a week (I). Patients with active myocardial infarct or other cardiopulmonary heart disease, such as severe psychoneurosis, menopausal syndrome and chest pain caused by cervical spondylopathy (E), patients of angina pectoris combined with hypertension (bloodpressure >24/14.87 Kpa) (E), patients of severe cardiopulmonary function deficiency, severe arrhythmia, abnormal liver and renal function and/or hematopoietic disease (E), breast-feeding women and patients with a known history of allergic disease (E), patients younger than 18 or older than 70 (E).
The diagnostic standard for angina pectoris severity is used to describe baseline patient characteristics and subsequently to monitor treatment efficacy (see below).
Low-grade: Typical attack of angina pectoris, which usually lasts a few minutes and occurs 1-3 times a day. The attack is not severe, but the patient sometimes needs to take nitroglycerin. Mid-grade: Angina attack occurs more than 3 times everyday and lasts several to ten minutes every time. The pain is more severe than that of the low-grade attack and the patient generally needs sublingual nitroglycerin. High-grade: Angina attack occurs frequently daily. It lasts longer and more seriously. Routine life is affected. The patient needs to use nitroglycerin frequently.
The diagnostic standard for angina pectoris types is used to describe baseline characteristics and classify patient types.
Exertionally-induced angina pectoris: The transient attack of chest pain is caused typically by exertion or other conditions that increase myocardial oxygen demands. The pain normally disappears rapidly after rest or administration of sublingual nitroglycerin. Spontaneous angina pectoris: The attack of chest pain is not obviously related to increase of myocardial oxygen consumption. Compared with tiredness-induced angina pectoris, the pain lasts longer and is more severe. It can not be easily alleviated by nitroglycerin. Mixed Angina Pectoris: Spontaneous angina pectoris can come with tiredness-induced angina pectoris and is classified as mixed angina pectoris. […]

C[C@]12CC[C@@H]3c4ccc(O)cc4CC[C@H]3[C@@H]1CC[C@@H]2O [17β-estradiol]
effect on coronary and cerebral arteries [1]: relaxant effect

C[C@]12CC[C@@H]3c4ccc(O)cc4CC[C@H]3[C@@H]1[C@@H](O)[C@@H](O)[C@@H]2O [estetrol, 1,3,5 (10)-estratrien-3,15α,16α,17β-tetrol]
changes in vital signs, haematology, biochemistry or urinalysis ([2]; 1, 10 and 100 mg estetrol): no clinically significant changes
severe or serious adverse events ([2]; 1, 10 and 100 mg estetrol): No severe or serious adverse events
safety and tolerability profile ([2]; single oral doses of 1, 10 and 100 mg): safe and well tolerated
time of maximum plasma concentrations post-dosing ([3]; 1 mg oral dose group): 15 min
Cmax ([3]; female, human, plasma, 1 mg, 1 mg oral estetrol, read-out: Cmax (median)): 0.52 ng/mL
Cmax ([3]; female, human, plasma, 1 mg, 1 mg oral estetrol, read-out: Cmax (range)): 0.39 to 1.2 ng/mL
Cmax ([3]; female, human, plasma, 10 mg, 10 mg oral estetrol, read-out: Cmax (median)): 9.4 ng/mL
Cmax ([3]; female, human, plasma, 10 mg, 10 mg oral estetrol, read-out: Cmax (range)): 5.4 to 11.6 ng/mL
Cmax ([3]; female, human, plasma, 100 mg, 100 mg oral estetrol, read-out: Cmax (median)): 148 ng/mL
Cmax ([3]; female, human, plasma, 100 mg, 100 mg oral estetrol, read-out: Cmax (range)): 119 to 213 ng/mL
half-life ([3]; female, human, plasma, single oral dose, final elimination phase, read-out: terminal half-life (converted)): ~28 h
gastro-intestinal absorption ([3]; oral dosing 1, 10 and 100 mg): good gastro-intestinal absorption
inter-subject variability of pharmacokinetic profile ([3]; oral dosing 1, 10 and 100 mg): low inter-subject variability
speed of absorption ([3]; single oral dose): extremely fast
start of slow phase of final elimination post-dosing ([3]; single oral dose): approximately 24 hours
improvement in satisfaction with overall sex life versus placebo ([4]; SFQ at 4 weeks): more subjects report improvement
percentage of subjects with improvement in the ability to develop and maintain erections versus placebo ([4]; SFQ at 4 weeks versus baseline): higher percentage of subjects that show improvement
tolerability ([4]; on demand oral, 4 weeks): well tolerated
headache and relief of migraine symptoms versus baseline analgesic and/or triptan-type medication (migraine; 100 mg estetrol tablets): less headache and more quicker relief of migraine symptoms
side effects directly related to investigational drug (migraine; 100 mg estetrol tablets, on demand, 2 months): No apparent side effects
tablet use by participants, estetrol versus placebo (migraine; free choice between blinded bottles, 2 months): significantly more estetrol containing tablets than placebo tablets
patient-reported effect on angina pectoris symptoms ([5]; on demand oral): relief of angina pectoris symptoms
side effects versus placebo ([5]; on demand oral, 4 weeks): no obvious side effects
use of nitroglycerin versus placebo arm ([5]; on demand oral, 4 weeks): significantly lower than in the placebo arm
improvement of exercise tolerance, ability to extend the duration of walking and quality of life ([5]; versus placebo): statistically more improvement
